Results on 9 compounds are retold here after patent US9617256B2 (priority 2007, dated 2017).

In brackets after ≈: the same amount, converted by molar mass. Where two headings read alike, the source gives them in different places.

The test system of one assay is AECO001 (ATCC25922). Briefly: MIC broth microdilution, AECO001. In kind it is cell-based, E. coli. As to conditions: Escherichia coli. A digest of the protocol: (§1)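 Inocula prepared from 0.5 McFarland suspensions (final 3×10^5–7×10^5 CFU/mL) were added to 2-fold drug dilution series in cation-adjusted Mueller-Hinton broth. Plates stood 18-24 hours at 35° C. under ambient air.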

The subject of assay [1] is ASAU001 (laboratory strain of S. aureus, ATCC29213). Briefly: MIC broth microdilution, ASAU001. The following applies: Staphylococcus aureus, ATCC29213, read-out: MIC ASAU001. Format: cell-based. An outline of the steps: as §1
Assay [2] relates to AABA1060 (clinical isolate of Acinetobacter baumannii). Briefly: MIC broth microdilution, AABA1060. The following applies: Acinetobacter baumannii, read-out: MIC AABA1060. Format: cell-based. An outline of the steps: as §1
(Broth dilution looks for growth in wells or tubes with falling amounts of substance.)

For assay [3], the system named is AECO063 (ATCC25922 bearing an acrAB mutation). As to the kind of experiment: microbe, parasite or virus in culture. Format: cell-based, E. coli. The following applies: Escherichia coli, ATCC25922, read-out: MIC AECO063. A digest of the protocol:
as §1

For assay [4], the system named is APAE006 in the presence of 8 micrograms per milliliter of polymyxin B nonapeptide. In kind it is cell-based, P. aeruginosa. The following applies: APAE006 with 8 micrograms per milliliter polymyxin B nonapeptide. A digest of the protocol:
(§2)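 Growth inhibition was scored by CLSI broth microdilution using cation-adjusted Mueller-Hinton broth and a final inoculum between 3×10^5 and 7×10^5 CFU/mL, incubated 18-24 hours at 35° C.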

In the next assay the test system is APAE001 (ATCC27853). As to the kind of experiment: MIC broth microdilution, APAE001. In kind it is cell-based, P. aeruginosa. The following applies: Pseudomonas aeruginosa, ATCC27853, read-out: MIC APAE001, APAE001 (ATCC27853). An outline of the steps: as §1
Assay [5] has as its system APAE006 (strain of P. aeruginosa in which all efflux pumps are inactivated). Briefly: microbe, parasite or virus in culture. Format: cell-based. The following applies: Pseudomonas aeruginosa, read-out: MIC APAE006, APAE006, all efflux pumps inactivated. A digest of the protocol: as §2
Setting [6] is: ATCC25922, read-out: MIC AECO001.
[7] abbreviates: ATCC25922, read-out: MIC AECO001 HSA AGP.

`CC(C)CCC#CC#Cc1ccc(C(=O)N[C@H](C(=O)NO)C(C)(C)N)cc1` [Example 91-21]: the MIC in the assay with AECO001 (ATCC25922) (setting [6]) is less than 2 µg/mL; in the assay on AECO001 (ATCC25922) (setting [7]) it was 2 to 16 µg/mL (≈ 5.41 to 43.3 µM); in assay [1] it was 2 to 16 µg/mL (≈ 5.41 to 43.3 µM); in assay [2], 2 to 16 µg/mL (≈ 5.41 to 43.3 µM); in assay [3], less than 2 µg/mL; in the assay on APAE001 (ATCC27853), 2 to 16 µg/mL (≈ 5.41 to 43.3 µM). Moreover, in assay [5], the MIC is less than 2 µg/mL. The “MIC APAE006 + PMBN” value in assay [4] is listed as “A (MIC's of 2.0 μg/mL or less = A)”.
Take `CC(C)CC#CC#Cc1ccc(C(=O)N[C@H](C(=O)NO)C(C)(C)N)cc1` [Example 91-22]: the MIC in the assay on AECO001 (ATCC25922) (setting [6]) was less than 2 µg/mL; in the assay with AECO001 (ATCC25922) (setting [7]) it was 2 to 16 µg/mL (≈ 5.63 to 45 µM); in assay [1] it was 2 to 16 µg/mL (≈ 5.63 to 45 µM); in assay [2], 2 to 16 µg/mL (≈ 5.63 to 45 µM); in assay [3], less than 2 µg/mL; in the assay with APAE001 (ATCC27853), 2 to 16 µg/mL (≈ 5.63 to 45 µM). The MIC in assay [5] was less than 2 µg/mL. Also, in assay [4], the “MIC APAE006 + PMBN” value is given as “A (MIC's of 2.0 μg/mL or less = A)”.
`CC(C)(N)[C@H](NC(=O)c1ccc(C#CC#CCC2CCCC2)cc1)C(=O)NO` [Example 91-23]: the MIC with AECO001 (ATCC25922) (setting [6]) was less than 2 µg/mL; with AECO001 (ATCC25922) (setting [7]), 2 to 16 µg/mL (≈ 5.24 to 41.9 µM); in assay [1], 2 to 16 µg/mL (≈ 5.24 to 41.9 µM); in assay [2], 2 to 16 µg/mL (≈ 5.24 to 41.9 µM); in assay [3] it was less than 2 µg/mL; in the assay on APAE001 (ATCC27853), 2 to 16 µg/mL (≈ 5.24 to 41.9 µM). Moreover, the MIC in assay [5] is less than 2 µg/mL. Besides, the “MIC APAE006 + PMBN” value in assay [4] was “A (MIC's of 2.0 μg/mL or less = A)”.
Consider `C[C@@H](N)[C@H](NC(=O)c1ccc(C#CC#CCC2CCCC2)cc1)C(=O)NO` [Example 91-25], for which the MIC (in the assay with AECO001 (ATCC25922) (setting [6]); with AECO001 (ATCC25922) (setting [7]); in assay [1]; in assay [2]; in assay [3]; in the assay with APAE001 (ATCC27853)) was 16 to 64 µg/mL (≈ 43.5 to 174 µM) in each case. For the same compound, in assay [5], the MIC was 2 to 16 µg/mL (≈ 5.44 to 43.5 µM). Moreover, the “MIC APAE006 + PMBN” value in assay [4] is “B (MIC's of greater than 2.0 μg/mL to 16.0 μg/mL = B)”.
`CC(C)CCC#CC#Cc1ccc(C(=O)N[C@H](C(=O)NO)[C@@H](C)N)cc1` [Example 91-28]: the MIC is less than 2 µg/mL in the assay with AECO001 (ATCC25922) (setting [6]); 2 to 16 µg/mL (≈ 5.63 to 45 µM) with AECO001 (ATCC25922) (setting [7]); 2 to 16 µg/mL (≈ 5.63 to 45 µM) in assay [1]; 2 to 16 µg/mL (≈ 5.63 to 45 µM) in assay [2]; less than 2 µg/mL in assay [3]; 2 to 16 µg/mL (≈ 5.63 to 45 µM) with APAE001 (ATCC27853). Also, the MIC in assay [5] is less than 2 µg/mL. For the same compound, in assay [4], the “MIC APAE006 + PMBN” value is “A (MIC's of 2.0 μg/mL or less = A)”.
For the compound `C[C@@H](N)[C@H](NC(=O)c1ccc(C#CC#CC(C)(C)O)cc1)C(=O)NO` [Example 91-30], the MIC is 16 to 64 µg/mL (≈ 46.6 to 186 µM) in the assay on AECO001 (ATCC25922) (setting [6]); 16 to 64 µg/mL (≈ 46.6 to 186 µM) with AECO001 (ATCC25922) (setting [7]); 16 to 64 µg/mL (≈ 46.6 to 186 µM) in assay [1]; 16 to 64 µg/mL (≈ 46.6 to 186 µM) in assay [2]; 2 to 16 µg/mL (≈ 5.82 to 46.6 µM) in assay [3]; less than 2 µg/mL with APAE001 (ATCC27853). In addition, the MIC in assay [5] is less than 2 µg/mL. Besides, the “MIC APAE006 + PMBN” value in assay [4] is listed as “A (MIC's of 2.0 μg/mL or less = A)”.
For `C[C@H](C#CC#Cc1ccc(C(=O)N[C@H](C(=O)NO)[C@@H](C)N)cc1)N1CCOCC1` [Example 92-1, N-((2S,3R)-3-amino-1-(hydroxyamino)-1-oxobutan-2-yl)-4-((R)-5-morpholinohexa-1,3-diynyl)benzamide], the MIC was in the range of 2 to 16 µg/mL (≈ 5.02 to 40.2 µM) in the assay with AECO001 (ATCC25922) (setting [6]); 16 to 64 µg/mL (≈ 40.2 to 161 µM) in the assay with AECO001 (ATCC25922) (setting [7]); 16 to 64 µg/mL (≈ 40.2 to 161 µM) in assay [1]; 16 to 64 µg/mL (≈ 40.2 to 161 µM) in assay [2]; 2 to 16 µg/mL (≈ 5.02 to 40.2 µM) in assay [3]; 2 to 16 µg/mL (≈ 5.02 to 40.2 µM) in the assay with APAE001 (ATCC27853). In addition, the MIC in assay [5] was less than 2 µg/mL. For the same compound, the “MIC APAE006 + PMBN” value in assay [4] is “A (MIC's of 2.0 μg/mL or less = A)”.
For `C[C@@H](N)[C@H](NC(=O)c1ccc(C#CC#C[C@H](C)N2CCOCC2)cc1)C(=O)NO` [Example 92-2, N-((2S,3R)-3-amino-1-(hydroxyamino)-1-oxobutan-2-yl)-4-((S)-5-morpholinohexa-1,3-diynyl)benzamide], the MIC in the assay on AECO001 (ATCC25922) (setting [6]) was in the range of 16 to 64 µg/mL (≈ 40.2 to 161 µM); in the assay with AECO001 (ATCC25922) (setting [7]), 16 to 64 µg/mL (≈ 40.2 to 161 µM); in assay [1], 16 to 64 µg/mL (≈ 40.2 to 161 µM); in assay [2] it was 16 to 64 µg/mL (≈ 40.2 to 161 µM); in assay [3] it was 2 to 16 µg/mL (≈ 5.02 to 40.2 µM); with APAE001 (ATCC27853), 16 to 64 µg/mL (≈ 40.2 to 161 µM). In addition, the MIC in assay [5] is 2 to 16 µg/mL (≈ 5.02 to 40.2 µM). Besides, in assay [4], the “MIC APAE006 + PMBN” value is “B (MIC's of greater than 2.0 μg/mL to 16.0 μg/mL = B)”.
`C[C@@H](N)[C@H](NC(=O)c1ccc(C#CC#Cc2ccc(NS(C)(=O)=O)cc2)cc1)C(=O)NO` [Example 93-1, N-((2S,3R)-3-amino-1-(hydroxyamino)-1-oxobutan-2-yl)-4-((4-(methylsulfonamido)phenyl)buta-1,3-diynyl)benzamide]: the MIC was less than 2 µg/mL in the assay with AECO001 (ATCC25922) (setting [6]); 16 to 64 µg/mL (≈ 35.2 to 141 µM) with AECO001 (ATCC25922) (setting [7]); 16 to 64 µg/mL (≈ 35.2 to 141 µM) in assay [1]; less than 2 µg/mL in assay [2]; less than 2 µg/mL in assay [3]; less than 2 µg/mL in the assay on APAE001 (ATCC27853). The MIC in assay [5] was less than 2 µg/mL. Further, the “MIC APAE006 + PMBN” value in assay [4] is on record as “A (MIC's of 2.0 μg/mL or less = A)”.
